Test results published in PubChem BioAssay AID651883 (Southern Research Specialized Biocontainment Screening …, 2012).

Tested on: VEEV Trinidad donkey virus titer reduction, cell culture
Assay: VEEV Trinidad donkey titer reduction, cell-based, Trinidad donkey strain (AID 651883)
Details: stronger effect = lower value

SMILES	log virus titer change (at 5 µM)	log virus titer change (titer change, at 0.5 µM)	log virus titer change (titer change, at 1 µM)	log virus titer change (titer change, at 2 µM)
CCN1CCN(Cc2nc3ccc([N+](=O)[O-])cc3c(=O)n2-c2ccccc2F)CC1	-5.84	-0.518	-2.39	< -5.95
CCN1CCN(C)CC1=Nc1ccc([N+](=O)[O-])cc1C(=O)Nc1ccccc1	< -5.95	< -5.95	< -5.95	< -5.95
COc1ccc(NC(=O)c2cc([N+](=O)[O-])ccc2N=C2CN(C)CCN2C)cc1	< -5.95	< -5.95	< -5.95	< -5.95
CN1CCN(C)C(=Nc2ccc([N+](=O)[O-])cc2C(=O)Nc2ccccc2)C1	< -5.95	< -5.95	< -5.95	< -5.95
